Experimental data from patent publication US10272102B2, “Hydroxyalkyl starch for the treatment of hematological neoplasms” (FRESENIUS KABI DEUTSCHLAND GMBH, priority 2013, dated 2019).

What was measured:
[1] = test system: human acute myelogeneous leukemia EOL-1 cell line; assay: s.c. EOL-1 xenotransplantation model, tumor growth; type: in vivo; conditions: EOL-1 tumor-bearing male NOD/SCID mice; 75 mg/kg i.p. single dose (day 0)
Protocol: For calculation of the relative tumor volume (RTV) the tumor volumes at each measurement day were related to the day of first treatment. At each measurement day the median and mean tumor volumes per group and also the treated to control (T/C) values in percent were calculated.

CCRF-SB = assay: Prestoblue fluorescence cell viability assay, CCRF-SB; type: cell-based; conditions: CCRF-SB (ALL), 72 h incubation
Protocol: (§1) The objective of this study was to investigate potential effects of hydroxyethyl starch (“HES 130/0.4”) on cell viability of different leukemia cell lines. The 50% inhibition concentration (IC50) was determined in 28 different leukemia cell lines using the commercially available “Prestoblue fluorescence cell viability assay” after incubation with different “HES 130/0.4” concentrations for screening reasons. The concentration range of the tested HES was 100 mg/ml-[…].
(§2) PrestoBlue® reagent is a resazurin-based solution that functions as a cell viability indicator by using the reducing power of living cells to quantitatively measure the proliferation of cells. […] This change can be detected using fluorescence or absorbance measurements (see e.g. Int J Microbiol. 2013; 2013: 420601; published online Apr. 4, 2013 doi: 10.1155/2013/420601 PMCID PMC3638707). […]
(§3) Cells were harvested during the logarithmic growth period and counted using the commercially available cell counting device Countstar. […]
(§4) The test plate was incubated for 72 h in a humidified incubator at 37° C. with 5% CO2, and then measured by means of PrestoBlue assay. […] The plate was then incubated at room temperature for 30 minutes until fluorescence (T0) could be recorded using EnVision Multi Label Reader (Excitation: 540-570 nm/Emission: 580-610 nm). […]

Jurkat = assay: Prestoblue fluorescence cell viability assay, Jurkat; type: cell-based; conditions: Jurkat (ALL), 72 h incubation
Protocol: as §1, §2, §3, §4

MHH-CALL-2 = assay: Prestoblue fluorescence cell viability assay, MHH-CALL-2; type: cell-based; conditions: MHH-CALL-2 (ALL), 72 h incubation
Protocol: as §1, §2, §3, §4

Molt-4 = assay: Prestoblue fluorescence cell viability assay, Molt-4; type: cell-based; conditions: Molt-4 (ALL), 72 h incubation
Protocol: as §1, §2, §3, §4

MUTZ-5 = assay: Prestoblue fluorescence cell viability assay, MUTZ-5; type: cell-based; conditions: MUTZ-5 (ALL), 72 h incubation
Protocol: as §1, §2, §3, §4

NALM 6 = assay: Prestoblue fluorescence cell viability assay, NALM 6; type: cell-based; conditions: NALM 6 (ALL), 72 h incubation
Protocol: as §1, §2, §3, §4

PEER IE6 = assay: Prestoblue fluorescence cell viability assay, PEER IE6; type: cell-based; conditions: PEER IE6 (ALL), 72 h incubation
Protocol: as §1, §2, §3, §4

RS4;11 = assay: Prestoblue fluorescence cell viability assay, RS4;11; type: cell-based; conditions: RS4;11 (ALL), 72 h incubation
Protocol: as §1, §2, §3, §4

SUP-B15 = assay: Prestoblue fluorescence cell viability assay, SUP-B15; type: cell-based; conditions: SUP-B15 (ALL), 72 h incubation
Protocol: as §1, §2, §3, §4

HL-60 = assay: Prestoblue fluorescence cell viability assay, HL-60; type: cell-based; conditions: HL-60 (AML), 72 h incubation
Protocol: as §1, §2, §3, §4

Kasumi-1 = assay: Prestoblue fluorescence cell viability assay, Kasumi-1; type: cell-based; conditions: Kasumi-1 (AML), 72 h incubation
Protocol: as §1, §2, §3, §4

ML-2 = assay: Prestoblue fluorescence cell viability assay, ML-2; type: cell-based; conditions: ML-2 (AML), 72 h incubation
Protocol: as §1, §2, §3, §4

MOLM-13 = assay: Prestoblue fluorescence cell viability assay, MOLM-13; type: cell-based; conditions: MOLM-13 (AML), 72 h incubation
Protocol: as §1, §2, §3, §4

MOLM-16 = assay: Prestoblue fluorescence cell viability assay, MOLM-16; type: cell-based; conditions: MOLM-16 (AML), 72 h incubation
Protocol: as §1, §2, §3, §4

MV-4-11 = assay: Prestoblue fluorescence cell viability assay, MV-4-11; type: cell-based; conditions: MV-4-11 (AML), 72 h incubation
Protocol: as §1, §2, §3, §4

NB4 = assay: Prestoblue fluorescence cell viability assay, NB4; type: cell-based; conditions: NB4 (AML), 72 h incubation
Protocol: as §1, §2, §3, §4

THP-1 = assay: Prestoblue fluorescence cell viability assay, THP-1; type: cell-based; conditions: THP-1 (AML), 72 h incubation
Protocol: as §1, §2, §3, §4

Reh = assay: Prestoblue fluorescence cell viability assay, Reh; type: cell-based; conditions: 72 h incubation
Protocol: as §1, §2, §3, §4

TF-1 = assay: Prestoblue fluorescence cell viability assay, TF-1; type: cell-based; conditions: TF-1 (AML), 72 h incubation
Protocol: as §1, §2, §3, §4

EHEB = assay: Prestoblue fluorescence cell viability assay, EHEB; type: cell-based; conditions: EHEB (CLL), 72 h incubation
Protocol: as §1, §2, §3, §4

JVM-13 = assay: Prestoblue fluorescence cell viability assay, JVM-13; type: cell-based; conditions: JVM-13 (CLL), 72 h incubation
Protocol: as §1, §2, §3, §4

JVM-2 = assay: Prestoblue fluorescence cell viability assay, JVM-2; type: cell-based; conditions: JVM-2 (CLL), 72 h incubation
Protocol: as §1, §2, §3, §4

JVM-3 = assay: Prestoblue fluorescence cell viability assay, JVM-3; type: cell-based; conditions: JVM-3 (CLL), 72 h incubation
Protocol: as §1, §2, §3, §4

MEC-1 = assay: Prestoblue fluorescence cell viability assay, MEC-1; type: cell-based; conditions: MEC-1 (CLL), 72 h incubation
Protocol: as §1, §2, §3, §4

MEC-2 = assay: Prestoblue fluorescence cell viability assay, MEC-2; type: cell-based; conditions: MEC-2 (CLL), 72 h incubation
Protocol: as §1, §2, §3, §4

K-562 = assay: Prestoblue fluorescence cell viability assay, K-562; type: cell-based; conditions: K-562 (CML), 72 h incubation
Protocol: as §1, §2, §3, §4

KU812 = assay: Prestoblue fluorescence cell viability assay, KU812; type: cell-based; conditions: KU812 (CML), 72 h incubation
Protocol: as §1, §2, §3, §4

MEG-01 = assay: Prestoblue fluorescence cell viability assay, MEG-01; type: cell-based; conditions: MEG-01 (CML), 72 h incubation
Protocol: as §1, §2, §3, §4

## O=P1(N(CCCl)CCCl)NCCCO1 (stereo not drawn) [Cyclophosphamide]
[1]
  inhibition of tumor growth: significant inhibition

## N.N.[Cl][Pt][Cl] [Cisplatin, cisplatin]
CCRF-SB
  IC50: 100 µg/mL
  Max-inhibition: 100%
Jurkat
  IC50: 200 µg/mL
  Max-inhibition: 100%
MHH-CALL-2
  IC50: 140 µg/mL
  Max-inhibition: 100%
Molt-4
  IC50: 150 µg/mL
  Max-inhibition: 100%
MUTZ-5
  IC50: 190 µg/mL
  Max-inhibition: 100%
NALM 6
  IC50: 240 µg/mL
  Max-inhibition: 100%
PEER IE6
  IC50: 3730 µg/mL
  Max-inhibition: 100%
RS4;11
  IC50: 50 µg/mL
  Max-inhibition: 100%
SUP-B15
  IC50: 450 µg/mL
  Max-inhibition: 100%
HL-60
  IC50: 450 µg/mL
  Max-inhibition: 100%
Kasumi-1
  IC50: 780 µg/mL
  Max-inhibition: 100%
ML-2
  IC50: 350 µg/mL
  Max-inhibition: 100%
MOLM-13
  IC50: 340 µg/mL
  Max-inhibition: 100%
MOLM-16
  IC50: 650 µg/mL
  Max-inhibition: 100%
MV-4-11
  IC50: 160 µg/mL
  Max-inhibition: 100%
NB4
  IC50: 140 µg/mL
  Max-inhibition: 100%
THP-1
  IC50: 640 µg/mL
  Max-inhibition: 100%
Reh; Reh (AML)
  Max-inhibition: 100%
Reh; Reh (B-ALL)
  IC50: 170 µg/mL
TF-1
  IC50: 1720 µg/mL
  Max-inhibition: 100%
EHEB
  IC50: 490 µg/mL
  Max-inhibition: 100%
JVM-13
  IC50: 180 µg/mL
  Max-inhibition: 100%
JVM-2
  IC50: 180 µg/mL
  Max-inhibition: 100%
JVM-3
  IC50: 270 µg/mL
  Max-inhibition: 100%
MEC-1
  IC50: 1150 µg/mL
  Max-inhibition: 100%
MEC-2
  IC50: 1670 µg/mL
  Max-inhibition: 100%
K-562
  IC50: 1290 µg/mL
  Max-inhibition: 100%
KU812
  IC50: 250 µg/mL
  Max-inhibition: 100%
MEG-01
  IC50: 830 µg/mL
  Max-inhibition: 100%
